Twelve compounds from patent EP3964206A1, “COMPOUNDS FOR THE TREATMENT OF COVID-19” (priority 2020, dated 2022) can be followed below.

The experiment concerns SARS-CoV-2. Kind of experiment: microbe, parasite or virus in culture. As to conditions: Severe acute respiratory syndrome coronavirus 2, 120 h; for Emax: read-out: Maximum confluence reached (%). The format is cell-based.

pIC50: −log10 of the molar value. Where a name gives a salt, the structure may show the parent alone. Peptide text beside a SMILES is read from it. * marks the point of attachment. Cbz = O=C(OCc1ccccc1)*

In the case of `C[C@@H]1C[C@@H]([C@H](O)CC2CC(=O)NC(=O)C2)C(=O)[C@@H](C)C1` [Compound 58, 4-[2(R)-[(1S,3S,5S)-3,5-Dimethyl-2-oxocyclohexyl]-2-hydroxyethyl]piperidine-2,6-dione], the Emax worked out at 63.7%.

`O=C(C1CC1)N1CC[C@@H](Cc2n[nH]c(=O)n2-c2ccc(-c3ccc4ccoc4c3)cc2)C1` [Compound 67, 4-[4-(1-Benzofuran-6-yl)phenyl]-5-[1-(cyclopropylcarbonyl)pyrrolidin-3(S)-ylmethyl]-3,4-dihydro-2H-1,2,4-triazol-3-one]: the pIC50 was 4.77 and the Emax was 31.1%.

Consider `O=C(Nc1ccc(Cl)c(Cl)c1)Nc1ccc(Cl)c(Cl)c1` [Compound 72, 1,3-Bis(3,4-dichlorophenyl)urea], for which the Emax is 45.9%.

Regarding `CC[C@@H](C(=O)[C@@H](C)[C@@H](O)[C@H](C)[C@@H]1O[C@@H]([C@@H](CC)C(=O)O)CC[C@@H]1C)[C@H]1O[C@]2(C=C[C@@H](O)[C@]3(CC[C@@](C)([C@H]4CC[C@](O)(CC)[C@H](C)O4)O3)O2)[C@H](C)C[C@@H]1C` [Compound 93, 2(R)-[6(R)-[5(R)-[(2S,5S,7R,9S,10S,12R,15R)-2-[5(R)-Ethyl-5-hydroxy-6(S)-methyltetrahydropyran-2(R)-yl]-15-hydroxy-2,10,12-trimethyl-1,6,8-trioxadispiro[4.1.5.3]pentadec-13-en-9-yl]-2(S)-hydroxy-1(S),3(S)-dimethyl-4-oxoheptyl]-5(S)-methyltetrahydropyran-2(R)-yl]butyric acid], the Emax is 34.4%.

As for `CC(C)C[C@@H](C=O)NC(=O)[C@H](CC(C)C)NC(=O)[C@H](CC(C)C)NC(=O)OCc1ccccc1` [Compound 52, Benzyloxycarbonyl-L-leucyl-L-leucyl-L-leucinal] (Cbz-Leu-Leu-Leu-aldehyde), the Emax came out at 82.8%.

For the compound `CCN(CC)CCO[C@H]1CC[C@@]2(C)C(=CC[C@@H]3[C@@H]2CC[C@]2(C)C(=O)CC[C@@H]32)C1` [Compound 80, 3beta-[2-(Diethylamino)ethoxy]androst-5-en-17-one hydrochloride], the Emax was 44.7%.

As for `Cn1nc(C(C)(C)C)cc1C(=O)N[C@@H](Cc1cccc(Cl)c1)C(=O)NCC#N` [Compound 63, 3-tert-butyl-N-{(1S)-1-(3-chlorobenzyl)-2-[(cyanomethyl)amino]-2-oxoethyl}-1-methyl-1H-pyrazole-5-carboxamide], the Emax was 96.2%.

On to `COc1cc2c(NC3CCN(C4CCCCC4)CC3)nc(N3CCCN(C(C)C)CC3)nc2cc1OCCCN1CCCCC1` [Compound 59, N-(1-Cyclohexylpiperidin-4-yl)-6-methoxy-7-[3-(1-piperidinyl)propoxy]-2-[4-(propan-2-yl)perhydro-1,4-diazepin-1-yl]quinazolin-4-amine], for which the Emax amounted to 80.1%.

As for `CC(C)(C)c1cc(C=C(C#N)C#N)cc(C(C)(C)C)c1O` [Compound 66, (3,5-Di-tert-butyl-4-hydroxybenzylidene)malononitrile], the Emax was determined as 47.6%.

With `CN(Cc1cnc2nc(N)nc(N)c2n1)c1ccc(C(=O)N[C@@H](CCC(=O)O)C(=O)O)cc1` [Compound 1, N-[4-[N-(2,4-Diaminopteridin-6-ylmethyl)-N-methylamino]benzoyl]-L-glutamic acid], the negative logarithm of the IC50 (pIC50) is 7.30 and the Emax turned out to be 64%.

With `CC1=NN(c2ccc(C)c(C)c2)C(=O)/C1=N\Nc1cccc(-c2cccc(C(=O)O)c2)c1O` [Compound 37, 3'-[2(Z)-[1-(3,4-Dimethylphenyl)-3-methyl-5-oxo-4,5-dihydro-1H-pyrazol-4-ylidene]hydrazino]-2'-hydroxybiphenyl-3-carboxylic acid], the pIC50 was 4.24 and the Emax amounted to 63.2%.

Regarding `CN1CCN(CCCN2c3ccccc3Sc3ccc(C(F)(F)F)cc32)CC1` [Compound 94, 10-[3-(4-Methylpiperazin-1-yl)propyl]-2-(trifluoromethyl)-10H-phenothiazine dihydrochloride], the Emax turned out to be 38%.

By pIC50 is commonly meant the negative decadic logarithm of the IC50, by convention in mol/L. Read a high pIC50 as a small IC50.
